Measured values published in publication PMC10682503, “Structural and functional basis of inositol hexaphosphate stimulation of NHEJ through stabilization of Ku-XLF interaction” (Nucleic Acids Research, 2023).
Read-outs that look alike come from different tables or passages of the source.

Legend:
[1] = target: T1, KuFL (full-length human Ku70–Ku80 heterodimer) (Homo sapiens, UniProt P12956+P13010); test: Isothermal titration calorimetry (ITC), KuFL with IP6 and IP6 analogues; format: binding; settings: 25 °C, Ku 4 µM in cell, IPs 40 µM in syringe
T1 construct: The full-length human Ku heterodimer subunits (Ku70 1–609, Ku80 1–732); 10x His-tag with TEV site (N); made in house; host or cells: Sf21 insect cells (baculovirus, MultiBac)
Procedure: Purification of Ku full-length (KuFL) for cryo-EM experiments was carried out as described previously ([5]). Expression and purification of KuFL for biophysical experiments was carried out as described previously ([20]). The full-length human Ku heterodimer subunits (Ku70 1–609, Ku80 1–732) were cloned into a Multibac vector ([21]). The construct has a 10× His-tag and a TEV site on the N-terminus of Ku80 and no-tag on Ku70. Protein production was initiated in Sf21 cells by infection with the baculovirus stock at MOI of 5 × 10^−3 and cells were collected 5–6 days after the infection (3–4 days after the proliferation arrest). Cells were sonicated and the supernatant was incubated with Benzonase (300 units for 30 min at 4°C). The Ku heterodimer was purified on a NiNTA-Agarose affinity column (Protino, Macherey Nagel) with a 1 M NaCl wash step to remove DNA excess. The eluted Ku was then bound onto an anion exchange column (Resource Q, Cytiva) equilibrated in 20 mM Tris pH 8.0, 50 mM NaCl, 50 mM KCl, 10 mM β-mercaptoethanol and eluted with a salt gradient. The final yield was about 20 mg of purified heterodimer per litre of culture. KuΔC constructs, heterodimer deleted of its C-terminal region (Ku70 1–544, Ku80 1–551) for X-ray crystallography, Ku mutants, Ku-2E (Ku with mutation in K357E on Ku70 and K481E on Ku80) and Ku-4E (Ku with mutations in H359E and H360E on Ku70 and K413E and H414E on Ku80) were cloned in the same vector and produced following the same protocol as KuFL expressed in Sf21 insect cells.
Calorimetry. Interactions between KuFL and inositol phosphates (IPs) (IP6 and IP6 analogues) were determined by Isothermal Titration Calorimetry (ITC) using a VP-ITC calorimeter (Malvern). Prior to measurements, all solutions were degassed under vacuum. The reaction cell of the ITC (volume 1.8 mL) was loaded with Ku heterodimers at 4 µM concentration. […] The free energy of binding (ΔG) and the entropy (ΔS) were determined using the classical thermodynamic formula, ΔG = - RT ln(Ka) and ΔG = ΔH - TΔS. […]

KuFL = target: T2, KuFL (Homo sapiens, UniProt P12956+P13010); test: nanoDSF thermal stability of KuFL; settings: in the absence of DNA, increasing IP6 concentrations
T2 construct: The full-length human Ku heterodimer subunits (Ku70 1–609, Ku80 1–732); 10x His-tag with TEV site (N); made in house; host or cells: Sf21 insect cells (baculovirus, MultiBac)
Procedure: nano-Differential Scanning Fluorimetry. nanoDSF measurements were performed on a Tycho NT.6 device (NanoTemper) with KuFL dialyzed against buffer 20 mM Tris HCl pH 8, 150 mM NaCl, 5 mM β-mercaptoethanol. We used 9 µL of KuFL at 5 µM in absence or presence of DNA at 7.5 µM to obtain a (1:1.5) molar ratio. Measurements were performed in presence of IP6 concentrations ranging from 0 to 10 µM. Stocks solutions of IP6 and analogues are prepared so that 1 µL of IPs solutions are used in the 10 µL capillary for all concentrations tested. Each point corresponds to an average of three measurements. The temperature of transition that corresponds to the change of environment of the tryptophan is deduced from the first inflexion point of the 330 nm/350 nm ratio versus temperature.

[2] = target: T3, Ku-2E (Ku70-K357E, Ku80-K481E) (Homo sapiens, UniProt P12956+P13010, K357E/K481E); test: nanoDSF thermal stability of Ku-2E; settings: Ku-2E with DNA
T3 construct: 10x His-tag with TEV site (same vector as KuFL) (N); made in house; host or cells: Sf21 insect cells

KuFL-DNA interaction = target: T4, KuFL-DNA interaction (Homo sapiens, UniProt P12956+P13010); test: switchSENSE kinetics of KuFL interaction with 48bp DNA; format: binding; settings: IP6 3 μM
T4 construct: The full-length human Ku heterodimer subunits (Ku70 1–609, Ku80 1–732); 10x His-tag with TEV site (N); made in house; host or cells: Sf21 insect cells (baculovirus, MultiBac)
Procedure: (§1) switchSENSE: A DRX 2400 instrument and a multi-purpose 48bp chip were used for switchSENSE measurements (both Dynamic Biosensors GmbH; Planegg, Germany). The sample and running buffer was in 10 mM Tris HCl pH 7.4, 140 mM NaCl, 50 µM EDTA, 0.05 % Tween-20, 50µM EDTA. Kinetics experiments of Ku interaction with DNA in presence or absence of IP6 were performed on a DRX2 instrument. Complementary DNA to the strand immobilized on the chip was first hybridized on the measurement electrodes. The association and dissociation between Ku and DNA, with or without IP6 (3 µM) at Ku concentration (0-15-30-60-120-240 nM were measured in a flow rate of 200 µL/min. Kinetics experiments of Ku interaction with DNA and XLF with or without DNA were performed on a Helix instrument. The sample and running buffer was in 10 mM Tris HCl pH 7.4, 140 mM NaCl, 50 µM EDTA, 0.05 % Tween-20 with or without IP6 (20 µM). The flow rate of all conditions are at 500 µL/min.

Ku-XLF interaction = target: T5, Ku-XLF interaction (Homo sapiens, UniProt P12956+P13010); test: switchSENSE analysis of Ku-DNA interaction with XLF; format: binding; settings: IP6 20 μM; for Kd: biphasic fit
T5 construct: The full-length human Ku heterodimer subunits (Ku70 1–609, Ku80 1–732); 10x His-tag with TEV site (N); made in house; host or cells: Sf21 insect cells (Ku)
Procedure: as §1
A complementary DNA is hybridized onto an anchor DNA on the measurement chip in order to obtain a 96 base paired DNA with nick. KuFL is then captured under saturation condition (SI figure 13a and 13c). Association and dissociation between XLF and Ku-DNA is then monitored using 1, 2 or 8 µM of XLF, with or without IP6 in working buffer (SI figure 13c and d) . The fit is realised using biphasic model from BDS software.

Ku = target: Ku; parameters: method as in PMID 18776215; settings: competition assays with 3H-IP6; cited from earlier work
S. cerevisae Ku = system: S. cerevisae Ku; parameters: method as in PMID 11953323; settings: cited from earlier work

T5 sequence (P12956 whole entry): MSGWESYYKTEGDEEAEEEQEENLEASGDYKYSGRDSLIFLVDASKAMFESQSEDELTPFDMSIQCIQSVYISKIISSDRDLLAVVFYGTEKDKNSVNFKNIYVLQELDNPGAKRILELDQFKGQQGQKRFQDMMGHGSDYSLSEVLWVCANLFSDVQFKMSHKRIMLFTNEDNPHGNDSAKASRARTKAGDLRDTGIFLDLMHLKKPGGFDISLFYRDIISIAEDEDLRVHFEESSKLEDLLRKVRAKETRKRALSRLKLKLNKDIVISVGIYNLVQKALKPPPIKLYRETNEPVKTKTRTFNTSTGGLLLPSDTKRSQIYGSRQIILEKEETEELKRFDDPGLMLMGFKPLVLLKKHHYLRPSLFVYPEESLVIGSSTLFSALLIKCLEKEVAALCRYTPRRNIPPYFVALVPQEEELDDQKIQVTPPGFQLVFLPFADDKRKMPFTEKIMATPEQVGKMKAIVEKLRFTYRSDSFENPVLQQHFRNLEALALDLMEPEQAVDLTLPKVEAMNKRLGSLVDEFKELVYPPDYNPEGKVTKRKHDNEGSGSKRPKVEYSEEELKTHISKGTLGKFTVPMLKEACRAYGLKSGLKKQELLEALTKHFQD
T5 sequence (P13010 whole entry): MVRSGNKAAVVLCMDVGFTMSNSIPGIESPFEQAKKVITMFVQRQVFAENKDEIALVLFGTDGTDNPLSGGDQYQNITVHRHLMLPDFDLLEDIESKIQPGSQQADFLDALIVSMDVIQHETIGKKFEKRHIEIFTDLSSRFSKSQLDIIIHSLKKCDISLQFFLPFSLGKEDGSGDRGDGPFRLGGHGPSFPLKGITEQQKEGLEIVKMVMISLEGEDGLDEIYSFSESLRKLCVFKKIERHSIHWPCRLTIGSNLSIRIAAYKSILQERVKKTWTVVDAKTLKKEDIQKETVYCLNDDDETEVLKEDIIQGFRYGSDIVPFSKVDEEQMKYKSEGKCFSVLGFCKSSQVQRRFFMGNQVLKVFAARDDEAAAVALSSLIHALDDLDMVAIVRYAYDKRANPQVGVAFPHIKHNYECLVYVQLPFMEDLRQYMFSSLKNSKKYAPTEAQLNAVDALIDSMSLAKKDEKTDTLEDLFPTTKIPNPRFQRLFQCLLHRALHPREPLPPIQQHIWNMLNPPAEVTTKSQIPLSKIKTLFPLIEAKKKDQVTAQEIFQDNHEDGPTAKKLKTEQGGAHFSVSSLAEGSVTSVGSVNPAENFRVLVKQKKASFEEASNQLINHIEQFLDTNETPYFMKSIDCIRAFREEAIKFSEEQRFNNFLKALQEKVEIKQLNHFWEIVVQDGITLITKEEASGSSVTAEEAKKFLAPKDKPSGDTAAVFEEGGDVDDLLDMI
T5 sequence (Q9H9Q4 whole entry partner): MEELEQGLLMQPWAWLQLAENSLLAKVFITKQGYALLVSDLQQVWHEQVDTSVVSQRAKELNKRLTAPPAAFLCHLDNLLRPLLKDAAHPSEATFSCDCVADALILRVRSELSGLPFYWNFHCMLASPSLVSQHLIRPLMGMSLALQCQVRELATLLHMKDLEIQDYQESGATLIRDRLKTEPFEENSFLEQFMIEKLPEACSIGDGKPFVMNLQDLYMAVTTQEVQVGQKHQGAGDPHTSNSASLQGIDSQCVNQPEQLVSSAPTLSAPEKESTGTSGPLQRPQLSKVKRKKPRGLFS
T3 sequence (P12956 whole entry K357E): as the sequence (P12956 whole entry) above, with K357E counted along it
T3 sequence (P13010 whole entry K481E): as the sequence (P13010 whole entry) above, with K481E counted along it
T1 sequence (P12956 whole entry): as the sequence (P12956 whole entry) above
T1 sequence (P13010 whole entry): as the sequence (P13010 whole entry) above
T4 sequence (P12956 whole entry): as the sequence (P12956 whole entry) above
T4 sequence (P13010 whole entry): as the sequence (P13010 whole entry) above
T2 sequence (P12956 whole entry): as the sequence (P12956 whole entry) above
T2 sequence (P13010 whole entry): as the sequence (P13010 whole entry) above

SMILES: O=P(O)(O)O[C@H]1[C@H](OP(=O)(O)O)[C@@H](OP(=O)(O)O)[C@H](OP(=O)(O)O)[C@@H](OP(=O)(O)O)[C@H]1OP(=O)(O)O [IP6, inositol hexaphosphate]
- Kd [1]: 3.5 ± 2.9 nM
- effect on Ku thermal stability (KuFL): no significant effect
- extra thermal stabilization by IP6 [2]: no extra stabilization
- effect on Ku-DNA interaction (KuFL-DNA interaction): slight stimulation of the interaction
- KD1 stronger with IP6 than in absence of IP6 (Ku-XLF interaction): 3 fold
- KD2 stronger with IP6 than in absence of IP6 (Ku-XLF interaction): 14 fold
- Kd (Ku-XLF interaction; without IP6 1.9 ± 0.8, read-out: KD2, apparent affinity between Ku and XLF): 130 ± 9 nM
- Kd (Ku-XLF interaction; without IP6 3.6 ± 0.6, read-out: KD1, apparent affinity between Ku and XLF): 1200 ± 150 nM
- Kd (Ku): 46 nM
- interaction between S. cerevisae Ku and IP6 (S. cerevisae Ku): absence of interactions
